Measurements from patent publication US8455244B2, “Co-crystallization of ERR-α with a ligand that forms a reversible covalent bond” (Janssen Pharmaceutica N.V., priority 2009, dated 2013).

Key:
ERR-α [1] = biological target: T1, ERR-α (Homo sapiens, UniProt P11474); assay: LC/MS dissociation rate with 20-fold excess Compound 2 as competing ligand; type: binding; set-up: made in house; host or cells: Spodoptera frugiperda (Sf9) insect cells, baculovirus; settings: ligand 1 μM, ERR-α 0.5 μM, competing ligand 20 μM, 37° C., assumed first order
T1 sequence (P11474 with tags, fused parts or gaps): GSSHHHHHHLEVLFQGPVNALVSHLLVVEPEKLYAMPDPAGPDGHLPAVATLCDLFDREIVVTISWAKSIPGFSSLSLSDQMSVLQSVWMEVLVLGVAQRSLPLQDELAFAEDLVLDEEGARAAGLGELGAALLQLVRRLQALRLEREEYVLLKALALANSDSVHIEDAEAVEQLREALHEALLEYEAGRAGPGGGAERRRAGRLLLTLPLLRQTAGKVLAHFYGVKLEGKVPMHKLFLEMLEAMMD
Source text: The progress of the reaction was also expressed as a fraction of the area observed for the complex of ERR-α and the competing ligand over the sum of total area for the complex of ERR-α with the ligand and the complex of ERR-α with the competing ligand.
where k is the apparent rate constant.

ERR-α [2] = biological target: ERR-α (Homo sapiens, UniProt P11474); assay: biochemical
Protocol: For TR-FRET measurements, the reaction was buffered in 25 mM Tris pH 8, 2.5 mM Hepes, 20 mM KCl, 1 mM DTT, and 0.05 mg/mL BSA (-lipids). […] Reactions were allowed to reach equilibrium at 25° C. for 4-18 hours before collecting data on the Analyst from LJL Biosystems (Molecular Devices Sunnyvale, Calif.).
Target sequence in this assay (P11474 with tags, fused parts or gaps limits assumed): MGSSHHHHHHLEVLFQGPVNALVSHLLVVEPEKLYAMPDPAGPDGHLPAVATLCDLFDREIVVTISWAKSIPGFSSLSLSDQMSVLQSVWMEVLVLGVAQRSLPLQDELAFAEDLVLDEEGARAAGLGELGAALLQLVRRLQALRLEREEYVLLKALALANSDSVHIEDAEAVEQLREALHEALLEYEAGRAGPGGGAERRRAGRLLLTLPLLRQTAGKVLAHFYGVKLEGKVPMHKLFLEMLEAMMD

ERR-α [3] = biological target: T1, ERR-α; assay: biochemical; settings: pH 7.9, read-out: ka
Protocol: To monitor the kinetics of association and dissociation for ligands that formed a complex with ERR-α by forming a covalent bond to Cys325 of ERR-α, LC/MS detection was employed. LC analysis was performed on an Agilent 1100 LC system that was in line with an Agilent MSD TOF for mass detection. Software provided by the vendor was used to deconvolute the ESI positive ion quadrupole time-of-flight spectra. To measure association rates, typically a 1 μM ERR-α solution was mixed with an equal volume of a 2 μM ligand solution. […]
For the apo form of ERR-α, a mass of 27042 was detected, corresponding to an amino acid sequence where the initiator methionine is cleaved followed by N-terminal acetylation.
Association and dissociation rates for ligands were determined by fitting fractional values obtained for the progress of the reaction as a function of time using a single exponential equation progress of reaction=e^−kt
where k is the apparent rate constant. For the dissociation experiments, the reaction is assumed to be first order and dissociation rates, kd, are expressed as s^−1. For the association rates, k^a, the reaction is assumed to be second order and the rates are expressed as M^−1s^−1 by dividing the apparent rate constants by the concentration of the protein determined by experimental conditions (Table 4).

| SMILES | kd (ERR-α [1]) [s⁻¹] | EC50 (ERR-α [2]) [nM] | kon (ERR-α [3]) [M⁻¹ s⁻¹] |
| --- | --- | --- | --- |
| COc1cc(/C=C2\SC(N)=NC2=O)ccc1Oc1ccc(C#N)cc1C(F)(F)F [Compound 5] | 2.05e-05 |  |  |
| COc1cc(/C=C2\SC(N3CCN(C)CC3)=NC2=O)ccc1Oc1ccc(C#N)cc1C(F)(F)F [Compound 3] | 1.53e-05 |  |  |
| COC(=O)c1ccc(Oc2ccc(/C=C3\SC(=O)NC3=O)cc2OC)c(C(F)(F)F)c1 [Compound 2] |  | 11 |  |
| COc1cc(/C=C2\SC(=O)NC2=O)ccc1Oc1ccc(C#N)cc1C(F)(F)F [Compound 1] | 1.1e-05 |  | 6600 |
| CN1CCN(C2=NC(=O)/C(=C/c3ccc(Oc4ccc(C#N)cc4C(F)(F)F)c(F)c3)S2)CC1 [Compound 4] | 2.19e-05 |  |  |
